Counter-ions that a name gives are not always drawn. Like-named read-outs stand apart in the source and are kept apart here.
Key:
hysterectomy patients [1] = conditions: cited from earlier work
hysterectomy patients [2] = conditions: cited from earlier work; for average postoperative morphine consumption: infiltration in deep and superficial layers of the wound after abdominal hysterectomy
[3] = Clinical study: bupivacaine plasma pharmacokinetics after sponge implantation; assay type: in vivo, human
Method: Patients received three 5 cm×5 cm (×0.5 cm thick) sponges; one sponge divided between areas adjacent the surgical site (in this case, adjacent the location of the now-removed uterus), one sponge divided and placed across the incision in the wall of the body cavity (in this case, the peritoneum) and the final sponge divided and placed between the sheath and skin around the incision. Each sponge contained 50 mg of bupivacaine hydrochloride, giving a total dose of 150 mg per patient.
The patients were scheduled to receive a hysterectomy in the absence of uterine adenocarcinoma, cervical cancer, leiomyosarcoma or the suspicion of these cancers.

plasma proteins = conditions: cited from earlier work
[4] = neonates; cited from earlier work
[5] = in vivo; cited from earlier work
[6] = tested on: Caesarian section patients; conditions: […] or 0.5%, 20 ml, cited from earlier work
[7] = mean, n=11, three sponges, 150 mg

CCCCN1CCCC[C@H]1C(=O)Nc1c(C)cccc1C [levobupivacaine]
incisional pain, deep pain and pain on coughing versus normal saline (hysterectomy patients [1]; […] infusion 12.5 mg/hr over 24 hours, 1-2 hours post surgery): significant reduction | Total ketobemidone (PCA narcotic) (hysterectomy patients [1]; […] infusion 12.5 mg/hr, 4-24 hour period): significantly reduced

CCN(CC)CC(=O)Nc1c(C)cccc1C [lidocaine]
reduction in pain scores and supplementary analgesic consumption (hysterectomy patients [2]; 500 mg aerosol subcutaneously, first 24 hours, Sinclair et al 1996): approximately 50%

CCCCN1CCCCC1C(=O)Nc1c(C)cccc1C (stereo not drawn) [Bupivacaine Hydrochloride]
tlag ([3]; efficacy population n=12, three sponges, 150 mg bupivacaine HCl, column head Mean, marked *): 0.000 h | Cmax ([3]; female, human, 150 mg, mean, n=12, three sponges, 150 mg bupivacaine HCl, read-out: Cmax): 225 ng/mL | AUC(0-inf) ([3]; female, human, mean, n=11, three sponges, 150 mg): 6360 ng·h/mL | AUC(0-t) ([3]; female, human, mean, n=12, three sponges, 150 mg): 6530 ng·h/mL | Tmax ([3]; female, human, n=12, three sponges, 150 mg, column head Mean, marked *): 12 h | t1/2z [3, 7]: 10.092 h | λz [3, 7]: 0.07084 h⁻¹

CCCCN1CCCCC1C(=O)Nc1c(C)cccc1C (stereo not drawn) [bupivacaine, Bupivacaine]
Cmax ([3]; female, human, 150 mg, after implantation of three bupivacaine-collagen sponges, 150 mg, read-out: highest individual Cmax): 440 ng/mL | Cmax ([3]; female, human, 150 mg, after implantation of three bupivacaine-collagen sponges, 150 mg, read-out: mean Cmax): 220 ng/mL | bound to plasma proteins (plasma proteins): about 95% | Reported half-lives [4]: about 8 hours | known systemic toxicity level [5]: 2 to 4 µg/mL | reduction in analgesic consumption (hysterectomy patients [2]; […] solution 45 ml infiltrated subfascially and subcutaneously, Hannibal): 50% | average postoperative morphine consumption (hysterectomy patients [2]; Klein et al 2000): 54 mg | average postoperative morphine consumption (hysterectomy patients [2]; Ng et al 2002): 44 mg | analgesia compared with no treatment (hysterectomy patients [2]; subcutaneous infiltration of solution, Cobby 1997, Victory 1995): no improvement in analgesia | duration of the effect on analgesic consumption ([6]; Caesarian section): 4 h | reduction in analgesic consumption ([6]; three studies on Caesarian section): 20-50%
